Holding throughout (format): functional
For assay [1], the system named is Mus musculus. Kind of assay: In vivo inhibitory activity on the increase of serum GOT induced by D-GalN / LPS (liver injury) in mice at 50 mg/kg peroral administration. The note with it: route oral.
Assay [2] relates to Mus musculus. Kind of assay: In vivo inhibitory activity on the increase of serum GPT induced by D-GalN / LPS (liver injury) in mice at 50 mg/kg peroral administration. The note with it: route oral.
Another assay is filed under the species Rattus norvegicus. Kind of assay: In vitro hepatocytotoxicity induced by D-GalN in primary cultured rat hepatocytes at a concentration of 10e-4 M. The conditions noted are these: Hepatocyte.
The species entered for assay [3] is Mus musculus. Kind of assay: In vitro inhibitory activity on the production of nitric oxide (NO) induced by LPS in mouse peritoneal macrophages at a concentration of 10e-4 M.
Assay [4] relates to Mus musculus. The assay is described as follows: In vivo inhibitory activity on the increase of serum GOT induced by D-GalN / LPS (liver injury) in mice at 20 mg/kg peroral administration. The conditions noted are these: route oral.

We go through 15 compounds from ChEMBL document CHEMBL1130745, “Inhibitory effect and action mechanism of sesquiterpenes from Zedoariae Rhizoma on D-galactosamine/lipopolysaccharide-induced liver injury” (1998).

For `CC1=CC2(O)O[C@@]3(CC2=C(C)C)[C@@H](C)CC[C@@H]13` (single isomer, unassigned) [CURCUMENOL], the inhibition in vivo at 50 mg/kg was 53.3% with Mus musculus [1] and 50.7% with Mus musculus [2]. For the same compound, the inhibition at 100 µM in the assay listed under Rattus norvegicus was determined as 25.1%; in the assay listed under Mus musculus [3], 50.4%.
The like results for `CC1=CC(=O)C(=C(C)C)CC2[C@@](C)(O)CC[C@]12O` (some centres undefined) were, in that order, 89.1%, 88%, -41.5% and -8.8%.
The like results for `C/C1=C\Cc2c(C)coc2C/C(C)=C/CC1` [ISOFURANODIENE] were, in that order, 74.3%, 72.9%, -0.5% and 96.1%.
In the assay on Mus musculus [2], `C[C@]12CCC(=O)C=C1CCC1[C@@H]2[C@@H](O)C[C@@]2(C)[C@H]1CC[C@]2(O)C(=O)CO` (single isomer, unassigned) [HYDROCORTISONE] showed an inhibition in vivo at 50 mg/kg of 99%. Moreover, 20 mg/kg produced 98.3% inhibition in vivo in the assay on Mus musculus [4]. In the assay filed under Mus musculus [3], the inhibition at 100 µM amounted to 92.6%.
For `CC(C)=C1CC(=O)[C@@H](C)CC/C=C(\C)CC1=O`, the inhibition in vivo at 50 mg/kg is 46.2% with Mus musculus [1] and 49.7% with Mus musculus [2]. Also, the inhibition at 100 µM in the assay filed under Rattus norvegicus was -6.3%; in the assay filed under Mus musculus [3], 53.7%.
Turning to `CC(C)=C1C/C=C(\C)CC/C=C(\C)CC1=O`, the inhibition in vivo at 50 mg/kg was found to be 78.1% in the assay with Mus musculus [1] and 82.9% in the assay on Mus musculus [2]. The inhibition at 100 µM in the assay filed under Rattus norvegicus worked out at 59.8%; in the assay filed under Mus musculus [3], 46.8%.
The like results for `C/C1=C\CC[C@]2(C)O[C@H]2C(=O)c2c(C)coc2C1` were, in that order, 35.4%, 39.5%, -7.9% and -5%.
The like results for `CC(C)=C1CC2[C@@H](CC[C@]2(C)O)[C@](C)(O)CC1=O` (some centres undefined) were, in that order, 54.7%, 60.7%, -35.6% and 31.7%.
Regarding `COc1cc(/C=C/C(=O)CC(=O)/C=C/c2ccc(O)c(OC)c2)ccc1O` [CURCUMIN], the inhibition in vivo at 50 mg/kg turned out to be 63.4% in the assay with Mus musculus [1] and 71.2% in the assay with Mus musculus [2]. Also, the results for the inhibition at 100 µM in the assay filed under Rattus norvegicus and in the assay filed under Mus musculus [3] were -44.3% and 98.8%, respectively.
The like results for `C/C1=C\C/C(=C(/C)CO)C(=O)C/C(C)=C/CC1` were, in that order, 21.5%, 36.1%, -21.7% and -14.6%.
The like results for `C/C1=C\CC[C@H](C)C(=O)C[C@@H](C(C)C)C(=O)C1` were, in that order, 74.6%, 76.6%, 77.1% and 2%.
The like results for `C/C1=C\CC[C@@H](C)C(=O)C[C@@H](C(C)C)C(=O)C1` were, in that order, 58.4%, 59.3%, 44.6% and 41.9%.
In the case of `C=C1CC(=O)C(=C(C)C)CC2[C@H]1CC[C@]2(C)O` (some centres undefined), the inhibition in vivo at 50 mg/kg with Mus musculus [1] stood at 22.3%; in the assay with Mus musculus [2], 26.7%. The figures for the inhibition at 100 µM in the assay filed under Rattus norvegicus and in the assay filed under Mus musculus [3] were -5.2% and 54.5%, respectively.
The like results for `CC(=O)CC[C@H]1[C@@H]2CC(=C(C)C)C(=O)C[C@]12C` were, in that order, 88%, 90.1%, -12.2% and 13%.
`C=C1CC2(O)O[C@@]3(CC2=C(C)C)[C@@H](C)CC[C@@H]13` (single isomer, unassigned) [ISOCURCUMENOL]: the inhibition in vivo at 50 mg/kg with Mus musculus [1] came to 80.2%; in the assay with Mus musculus [2] it was 77.3%. The inhibition at 100 µM in the assay listed under Rattus norvegicus amounted to 14.2%; in the assay filed under Mus musculus [3], 36.5%.
